Measurements reported in ChEMBL document CHEMBL1201862, “PubChem BioAssay data set” (2004).
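How tested: cells in 96-well plates exposed to compound for 48 hours at five concentrations. GI50 = concentration required for 50% inhibition of growth.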 The source made the active and inactive calls. Rule as the data show it: active = GI50 up to about 1.1 µM and inactive = higher.

Experiments:
Assay in all cases: DTP human tumour cell line panel, 48 h
SK-OV-3 = test system: SK-OV-3
NCI-H23 = test system: NCI-H23
SF-295 = test system: SF-295
SW-620 = test system: SW-620
NCI-H226 = test system: NCI-H226
TK-10 = test system: TK-10
MDA-MB-231 = test system: MDA-MB-231
NCI/ADR-RES = test system: NCI/ADR-RES
K562 = test system: K562
DU-145 = test system: DU-145
SNB-19 = test system: SNB-19
SR = test system: SR
SK-MEL-5 = test system: SK-MEL-5
T47D = test system: T47D
KM12 = test system: KM12
UO-31 = test system: UO-31
MDA-MB-435 = test system: MDA-MB-435
EKVX = test system: EKVX

Measured: GI50

COc1ccc(C2C=C(c3ccccc3)Nc3nnnn32)cc1 (configuration not stated)
inactive: SK-OV-3 31.7 µM | NCI-H23 > 100 µM | SF-295 31 µM | SW-620 37.3 µM | NCI-H226 64 µM | TK-10 6.27 µM | MDA-MB-231 26.6 µM | NCI/ADR-RES > 100 µM | K562 50.6 µM | DU-145 28.4 µM | SNB-19 97.9 µM | SR 26.4 µM | SK-MEL-5 34.4 µM | T47D 19 µM | KM12 15.8 µM | UO-31 90.8 µM | MDA-MB-435 76.6 µM

CC(=O)Nc1ccc(S(=O)(=O)N=S(C)C)cc1
inactive: SK-OV-3 > 100 µM | EKVX > 100 µM | NCI-H23 > 100 µM | SF-295 > 100 µM | SW-620 > 100 µM | NCI-H226 > 100 µM | TK-10 > 100 µM | MDA-MB-231 > 100 µM | NCI/ADR-RES > 100 µM | K562 > 100 µM | DU-145 > 100 µM | SNB-19 > 100 µM | SR > 100 µM | T47D > 100 µM | KM12 > 100 µM | UO-31 > 100 µM | MDA-MB-435 > 100 µM

O=C(O)C(Cc1cccs1)C(=O)O
inactive: SK-OV-3 > 100 µM | EKVX > 100 µM | NCI-H23 > 100 µM | SW-620 > 100 µM | NCI-H226 > 100 µM | TK-10 > 100 µM | MDA-MB-231 > 100 µM | NCI/ADR-RES > 100 µM | K562 > 100 µM | DU-145 > 100 µM | SNB-19 > 100 µM | SR > 100 µM | SK-MEL-5 > 100 µM | T47D > 100 µM | KM12 > 100 µM | UO-31 > 100 µM | MDA-MB-435 > 100 µM

Cn1ncc2c(Nc3cccc(Cl)c3)nc(Nc3cccc(Cl)c3)nc21
inactive: SK-OV-3 20 µM | EKVX 14.5 µM | NCI-H23 16.3 µM | SF-295 5.47 µM | SW-620 11.2 µM | NCI-H226 > 48.3 µM | TK-10 11.5 µM | MDA-MB-231 16.7 µM | NCI/ADR-RES 9.71 µM | K562 1.75 µM | DU-145 14.6 µM | SNB-19 19.1 µM | SK-MEL-5 > 35.6 µM | T47D 10.2 µM | KM12 4.9 µM | UO-31 9.73 µM | MDA-MB-435 10.9 µM

CCCN(CCC)C(=S)N/N=C(/C)c1ccccc1O
inactive: SK-OV-3 10.2 µM | EKVX 6.31 µM | NCI-H23 12.1 µM | SF-295 6.41 µM | SW-620 5.55 µM | TK-10 6.19 µM | MDA-MB-231 9.4 µM | NCI/ADR-RES 1.57 µM | K562 4.06 µM | DU-145 6.84 µM | SNB-19 14.3 µM | SR 3.06 µM | SK-MEL-5 5.81 µM | T47D 3.61 µM | KM12 4.98 µM | UO-31 4.11 µM | MDA-MB-435 8.38 µM

CC(C)N(C(=O)C12C3(C(=O)OC(C)(C)C)C4C5(C#N)C3C1(C(=O)OC(C)(C)C)C5C42C(=O)OC(C)(C)C)C(C)C (configuration not stated)
inactive: EKVX 53 µM | NCI-H23 > 100 µM | SF-295 58.2 µM | SW-620 24.9 µM | TK-10 > 100 µM | MDA-MB-231 23 µM | NCI/ADR-RES 76.4 µM | K562 34.6 µM | DU-145 > 100 µM | SNB-19 > 100 µM | SR 21.7 µM | SK-MEL-5 60.1 µM | T47D 31.9 µM | KM12 > 100 µM | UO-31 60.4 µM | MDA-MB-435 27.5 µM

CSc1c(C#N)c(N)n(-c2ccc(C)cc2)c(=O)c1C#N
inactive: SK-OV-3 > 100 µM | EKVX > 100 µM | NCI-H23 > 100 µM | SW-620 > 100 µM | NCI-H226 70 µM | TK-10 > 100 µM | MDA-MB-231 > 100 µM | NCI/ADR-RES > 100 µM | K562 > 100 µM | DU-145 > 100 µM | SNB-19 > 100 µM | SR > 100 µM | SK-MEL-5 > 100 µM | T47D > 100 µM | KM12 > 100 µM | UO-31 50.4 µM | MDA-MB-435 > 100 µM

CC(C)C1=CC2=C(C(=O)C1=O)C13CCCC(C)(C)C1CC2OC3=O (configuration not stated)
inactive: SK-OV-3 59.3 µM | EKVX 16.2 µM | NCI-H23 26.8 µM | SF-295 37 µM | SW-620 14.5 µM | NCI-H226 18.6 µM | TK-10 14.8 µM | MDA-MB-231 21.9 µM | NCI/ADR-RES 18.9 µM | K562 3.64 µM | DU-145 18.8 µM | SNB-19 42.9 µM | SK-MEL-5 25.2 µM | T47D 20.4 µM | KM12 31.8 µM | UO-31 19.4 µM | MDA-MB-435 20.8 µM

CN(C)Cc1cc(C(=O)/C=C/c2ccc(F)cc2)cc(CN(C)C)c1O
inactive: EKVX 35.6 µM | NCI-H23 34.4 µM | SF-295 14 µM | SW-620 20.4 µM | NCI-H226 38.6 µM | TK-10 85.9 µM | MDA-MB-231 31 µM | NCI/ADR-RES 24.7 µM | K562 17.8 µM | DU-145 42.2 µM | SNB-19 25.4 µM | SR 20.6 µM | SK-MEL-5 19.1 µM | T47D 18 µM | KM12 18.9 µM | UO-31 13.4 µM | MDA-MB-435 16.3 µM
